{"source": "patent US8226943B2", "about": "“Antibodies to notch receptors” (OncoMed Pharmaceuticals, Inc., priority 2008, dated 2012)", "key": {"PE13 breast tumor cells": {"test_system": "PE13 breast tumor cells", "test": "PE13 breast tumor xenograft growth", "type": "in vivo, NOD/SCID mice", "protocol": "In certain embodiments, NOD/SCID mice injected with 50,000 PE13 or T3 breast tumor cells were treated with anti-Notch2/3 antibody 59R1 or control antibody 1B7.11 two days following cell injections. Antibodies were dosed at 10 mg/kg twice week.\nIn a further experiment, anti-Notch2/3 antibodies were tested for an effect on breast tumor growth. NOD/SCID mice were injected with 50,000 PE13 or T3 breast tumor cells, and tumors were allowed to grow to a size of between 65 to 200 mm^3 after which mice were randomized (n=10 per experimental group), and antibodies administration begun. Animals were treated with 15 mg/kg of either control 1B7.11 antibodies or anti-Notch2/3 59R1 antibodies twice weekly. Tumor size was measured twice weekly, and tumor volume was calculated as described (see Michieli et al., 2004).\nThe 59R1 IgG2 antibody was also tested in vivo in the breast tumor xenograft lines OMP-B34, OMP-B39, OMP-B44, PE13, and UM-T1, the pancreas tumor xenograft line OMP-PN8, and the colon tumor xenograft line OMP-C8. These tumor xenograft lines were established by adhering to procedures described in Al-Hajj et al., 2003, Proc. Natl. Acad. Sci. USA, 100:3983-3988. Female NOD/SCID immuno-compromised mice 7-10 weeks old were used for the establishment of the breast tumor xenografts and male NOD/SCID mice were used for the OMP-Pn8 and OMP-C8 tumor-models (Harlan, Indianapolis, Ind.). The 59R1 IgG2 antibody was also tested in vivo in a Colo-205 colon tumor xenograft model. Female immunodeficient bg/nu XID mice on a Swiss CD-1 background were used for the Colo-205 xenograft tumor model. In case of the breast cancer models, slow-releasing estrogen pellets (0.36 mg) had to be implanted. Mice were subcutaneously injected on the right flank with 50,000 (OMP-B34, OMP-B39, OMP-B44, PE13, and UM-T1) or 1×10^7 (Colo-205) viable cells, respectively, in a mixture of PBS (without magnesium or calcium) and Matrigel at a 1:1 ratio. The injected total volume per mouse was 200 μl with 50% being Matrigel. Once the tumor had reached a size between 65-200 mm^3, the mice were randomized. Antibodies were administered weekly and tumors measured twice weekly. LZ1 (a human antibody that recognizes lyzozyme) or 1B711 (a murine IgG1 antibody that recognizes the hapten trinitrophenol) was used as a control antibody for treatment of each tumor type. Tumor volume was calculated as described Al-Hajj et al. (2003). Data are expressed as the mean and the mean±S.E.M. Group means were compared using Student's two-tailed, unpaired t-test. […] All statistical analysis was performed using Microsoft EXCEL and Graph Pad PRISM.\nIn one embodiment, NOD/SCID mice were injected with PE13 breast tumor cells. The mice were treated with anti-Notch2/3 antibody 59R1, anti-Notch2/3 antibody 59R5, or control antibody. Antibodies were dosed at 15 mg/kg once per week in a “preventative” mode where dosing was initiated two days after cell injection.\nIn one embodiment, to evaluate the effect of 59R5 on cancer stem cells, a tumor recurrence study was carried out in the PE13 breast tumor model. NOD/SCID mice were injected with PE13 breast tumor cells. The tumors were allowed to grow for 40 days before treatments were initiated. The mice were treated with taxol at 15 mg/kg twice per week for 5 weeks, in combination with either control antibody or anti-Notch 2/3 antibody 59R5. After 5 weeks, the taxol treatments were stopped and the antibody treatments were continued.\n(§1) Tumor volumes and p values for each experiment are shown relative to the control group. The PE13, C28 and Colo205 studies were carried out as described in Example 14. PN8 studies were carried out as described above. For the PN8 experiment, the control is gemcitabine alone and values for 59R1 and 59R5 are the combinations with gemcitabine. Antibodies were dosed once per week at 15 mg/kg for all experiments."}, "C28 colon tumor cells": {"test_system": "C28 colon tumor cells", "test": "C28 colon tumor xenograft growth", "type": "in vivo, NOD-SCID mice", "conditions": "for C28 Tumor vol relative to the control group / growth of C28 colon tumors: 15 mg/kg once per week; for growth of C28 colon tumors: preventative mode", "protocol": "C28 colon tumor cells (10,000 cells per mouse) were injected subcutaneously into the flank region of NOD-SCID mice. Tumors were allowed to grow for 24 days until they had reached an average volume of ˜130 mm^3. Animals were randomized into four treatment groups (n=10/group) and treatments were initiated. One group received a control antibody (1B711) at 10 mg/kg twice per week; one group received irintoecan at 7.5 mg/kg once per week plus the control antibody at 10 mg/kg twice per week; one group received 59R1 at 10 mg/kg twice per week, and the fourth group received the combination of 59R1 at 10 mg/kg twice per week and irinotecan at 7.5 mg/kg once per week. Tumor volumes were measured on the indicated days.\nIn another embodiment, NOD/SCID mice were injected with C28 colon tumor cells. The mice were treated with anti-Notch2/3 antibody 59R1, anti-Notch2/3 antibody 59R5 or control antibody. Antibodies were dosed at 15 mg/kg once per week in a “preventative” mode where dosing was initiated two days after cell injection.\nas §1"}, "human Notch2": {"target": "human Notch2 (Homo sapiens, UniProt Q04721)", "sequence (Q04721 26-2471)": "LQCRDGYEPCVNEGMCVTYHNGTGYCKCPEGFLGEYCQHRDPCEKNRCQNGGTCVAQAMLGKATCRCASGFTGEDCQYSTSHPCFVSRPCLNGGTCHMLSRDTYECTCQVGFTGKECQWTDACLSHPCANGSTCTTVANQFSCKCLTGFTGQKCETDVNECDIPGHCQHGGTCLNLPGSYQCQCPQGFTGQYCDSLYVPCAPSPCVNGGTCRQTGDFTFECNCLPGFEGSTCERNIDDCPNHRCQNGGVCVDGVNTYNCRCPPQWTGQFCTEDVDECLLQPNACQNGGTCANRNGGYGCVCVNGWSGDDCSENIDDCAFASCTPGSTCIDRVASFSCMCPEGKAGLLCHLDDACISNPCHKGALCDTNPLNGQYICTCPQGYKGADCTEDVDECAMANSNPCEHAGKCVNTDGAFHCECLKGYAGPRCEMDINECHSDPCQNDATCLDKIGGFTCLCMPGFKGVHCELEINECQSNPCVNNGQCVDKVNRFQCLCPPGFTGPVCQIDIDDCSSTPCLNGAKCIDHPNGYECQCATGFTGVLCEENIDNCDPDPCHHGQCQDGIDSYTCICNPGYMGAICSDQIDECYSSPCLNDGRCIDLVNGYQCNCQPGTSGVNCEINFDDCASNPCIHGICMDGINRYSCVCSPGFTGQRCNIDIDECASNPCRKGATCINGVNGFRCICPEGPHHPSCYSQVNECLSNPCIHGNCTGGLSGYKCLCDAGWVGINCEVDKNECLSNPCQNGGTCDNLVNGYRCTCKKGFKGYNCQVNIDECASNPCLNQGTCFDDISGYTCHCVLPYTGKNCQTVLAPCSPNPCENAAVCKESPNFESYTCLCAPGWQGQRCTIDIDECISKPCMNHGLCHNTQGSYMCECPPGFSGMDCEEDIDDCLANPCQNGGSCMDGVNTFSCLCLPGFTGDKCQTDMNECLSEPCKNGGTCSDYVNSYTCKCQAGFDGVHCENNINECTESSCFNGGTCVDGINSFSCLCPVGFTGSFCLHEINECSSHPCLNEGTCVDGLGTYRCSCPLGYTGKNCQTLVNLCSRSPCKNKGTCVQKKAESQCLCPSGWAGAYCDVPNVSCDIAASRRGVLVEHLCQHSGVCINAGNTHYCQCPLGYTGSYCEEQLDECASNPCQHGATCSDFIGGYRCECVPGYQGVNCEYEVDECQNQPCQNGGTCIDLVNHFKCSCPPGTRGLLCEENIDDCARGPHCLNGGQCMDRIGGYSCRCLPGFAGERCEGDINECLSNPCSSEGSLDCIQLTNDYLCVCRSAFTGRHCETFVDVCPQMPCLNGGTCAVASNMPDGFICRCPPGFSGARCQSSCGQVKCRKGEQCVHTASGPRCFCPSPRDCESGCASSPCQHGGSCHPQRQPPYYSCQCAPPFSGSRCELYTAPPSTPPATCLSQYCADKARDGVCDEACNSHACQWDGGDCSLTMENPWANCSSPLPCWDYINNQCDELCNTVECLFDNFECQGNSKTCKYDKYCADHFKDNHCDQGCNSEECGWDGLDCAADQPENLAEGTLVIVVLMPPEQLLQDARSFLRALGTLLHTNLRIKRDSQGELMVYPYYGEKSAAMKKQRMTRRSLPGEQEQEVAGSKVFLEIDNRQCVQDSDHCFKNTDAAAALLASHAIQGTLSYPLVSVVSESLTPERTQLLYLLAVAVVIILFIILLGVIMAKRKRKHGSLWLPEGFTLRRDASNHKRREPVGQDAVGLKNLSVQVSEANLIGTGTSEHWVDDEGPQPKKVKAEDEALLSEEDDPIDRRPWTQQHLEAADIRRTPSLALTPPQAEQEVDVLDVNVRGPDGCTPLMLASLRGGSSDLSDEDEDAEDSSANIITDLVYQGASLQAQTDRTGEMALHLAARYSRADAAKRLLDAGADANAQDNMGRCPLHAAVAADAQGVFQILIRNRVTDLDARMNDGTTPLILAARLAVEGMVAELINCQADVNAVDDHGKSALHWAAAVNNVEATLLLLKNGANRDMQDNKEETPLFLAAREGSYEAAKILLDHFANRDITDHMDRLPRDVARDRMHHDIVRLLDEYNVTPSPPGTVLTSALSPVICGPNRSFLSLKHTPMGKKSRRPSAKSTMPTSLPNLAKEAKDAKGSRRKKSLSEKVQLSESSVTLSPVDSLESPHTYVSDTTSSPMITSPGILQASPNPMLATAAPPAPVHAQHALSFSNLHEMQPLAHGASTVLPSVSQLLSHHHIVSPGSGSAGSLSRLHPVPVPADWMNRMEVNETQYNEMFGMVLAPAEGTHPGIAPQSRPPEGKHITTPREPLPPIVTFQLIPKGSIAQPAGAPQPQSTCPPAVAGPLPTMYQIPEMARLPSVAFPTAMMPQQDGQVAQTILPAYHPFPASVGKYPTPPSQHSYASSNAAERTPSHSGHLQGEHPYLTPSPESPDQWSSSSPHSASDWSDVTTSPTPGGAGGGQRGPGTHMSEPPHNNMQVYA", "test": "FACS binding to transiently transfected HEK-293 cells, human Notch2", "parameters": "expressed in transfected cells; host or cells: HEK-293, stably transfected", "protocol": "The ability of the 59R1 IgG2 antibody to cross-react with other Notch receptors was determined by FACS assay using HEK-293 cells transiently transfected with the human Notch1, Notch2, Notch3 or Notch4 expression plasmid and green fluorescent protein (GFP) as a transfection control. GFP positive cells indicated expression of the transgene. The 59R1 IgG2 was added to the cells at 2 μg/ml and detected by PE-conjugated goat anti-human Fc gamma specific (Jackson Immunochemicals). All Notch constructs were full length.\nThe binding epitope of 59R5 was determined. As was described in Example 3 for analysis of antibody 59R1, several point mutants were created within full-length Notch1, converting residues within EGF10 to the corresponding amino acids in human Notch 2. Mutants in full-length Notch sequences were generated by QuikChange® mutagenesis (Stratagene) and verified by sequencing. HEK 293 cells were transiently transfected with expression vectors encoding human Notch2, human Notch1, or human Notch1 with residues 382-386 mutated to the corresponding human Notch2 residues. Cells were also co-transfected with a plasmid encoding green fluorescent protein (GFP) to mark those cells that received transfected plasmid. […] 59R1 and 59R5 were detected by PE-conjugated goat anti-human Fc gamma specific antibody (Jackson Immunochemicals, #109-116-170). […]"}}}
{"substance": "59R1: human IgG2 antibody binding Notch2 and Notch3; heavy and light chain SEQ ID NO:16 and 18; ATCC PTA-9547", "values": [{"measurement": "PE13 tumor growth compared to control", "setting": "PE13 breast tumor cells; 10 mg/kg twice week, started two days following cell injections", "result": "significantly reduced"}, {"measurement": "PE13 Tumor vol relative to the control group", "setting": "PE13 breast tumor cells; 15 mg/kg once per week", "result": 0.25}, {"measurement": "PE13 breast cancer growth relative to control antibody", "setting": "PE13 breast tumor cells; established tumors, 15 mg/kg once a week", "result": "inhibit breast cancer growth"}, {"measurement": "PE13 tumor growth compared to control", "setting": "PE13 breast tumor cells; established tumors, 15 mg/kg twice weekly", "result": "significantly reduced"}, {"measurement": "C28 Tumor vol relative to the control group", "setting": "C28 colon tumor cells", "result": 0.29}, {"measurement": "growth of C28 colon tumors", "setting": "C28 colon tumor cells", "result": "inhibited"}, {"measurement": "C28 tumor growth, combination of 59R1 and irinotecan relative to the irinotecan group", "setting": "C28 colon tumor cells; 59R1 10 mg/kg twice per week and irinotecan 7.5 mg/kg once per week", "result": "inhibited"}, {"measurement": "C28 tumor growth, 59R1 alone relative to the control antibody group", "setting": "C28 colon tumor cells; established tumors, 10 mg/kg twice per week", "result": "inhibited"}, {"measurement": "binding to full-length human Notch2 (FACS)", "setting": "human Notch2", "result": "specifically binds"}]}
{"substance": "59R5: human antibody that specifically binds human Notch 2 and human Notch 3; heavy and light chain SEQ ID NO:49 and 18; ATCC PTA-10170", "values": [{"measurement": "PE13 Tumor vol relative to the control group", "setting": "PE13 breast tumor cells; 15 mg/kg once per week", "result": 0.18}, {"measurement": "inhibition of PE13 tumor growth", "setting": "PE13 breast tumor cells; 15 mg/kg once per week, preventative mode (dosing two days after cell injection)", "result": "greater than 80%"}, {"measurement": "PE13 tumor recurrence after high-dose taxol treatment", "setting": "PE13 breast tumor cells; taxol 15 mg/kg twice per week for 5 weeks plus antibody, then antibody only", "result": "significantly delay tumor recurrence"}, {"measurement": "C28 Tumor vol relative to the control group", "setting": "C28 colon tumor cells", "result": 0.38}, {"measurement": "growth of C28 colon tumors", "setting": "C28 colon tumor cells", "result": "inhibited"}, {"measurement": "binding to full-length human Notch2 (FACS)", "setting": "human Notch2", "result": "bound"}]}
